Assay results as given in patent US20110318741A1, “BIOMARKERS FOR THE TREATMENT OF PSORIASIS” (priority 2010, published 2011).

What was measured:
[1] = system: proinflammatory gene products in psoriasis lesional skin; assay: mRNA abundance of inflammatory molecules in skin biopsies by real-time RT-PCR, normalized to hARP; type: in vivo, human
Protocol: mRNA abundance for a variety of inflammatory molecules was measured by real-time RT-PCR and expression was normalized to the house-keeping gene HARP (human acidic ribosomal protein). Inflammatory markers assessed by mRNA levels included the chemokine CXCL9, beta-defensin (DEFB4), interferon-gamma, IL-10, IL-17a, IL-22, IL-8, keratin 16, MX-1, IL-12/23 p40, IL-23 p19, iNOS and TNF. These are inflammatory molecules produced by activated DC populations, Th1, Th17, Th22 T-cells and response genes to interferon (MX-1. CXCL9) or IL-17 (defensin). Keratin 16 was also measured by mRNA levels to assess the epidermal response by an alternate means.
(§1) The pharmacodynamic effects of (S)—N-(2-(1-(3-ethoxy-4-methoxyphenyl)-2-(methylsulfonyl)ethyl)-1,3-dioxoisoindolin-4-yl)acetamide were studied in skin biopsies from subjects treated with the compound in a phase 2, multi-center, open-label study evaluating the safety, tolerability, and efficacy of the compound in recalcitrant psoriasis vulgaris. Skin biopsies were taken from uninvolved and involved skin at baseline, and from involved skin after treatment with (S)—N-(2-(1-(3-ethoxy-4-methoxyphenyl)-2-(methylsulfonyl)ethyl)-1,3-dioxoisoindolin-4-yl)acetamide 20 mg BID after 4 and 12 weeks.
The expression of proinflammatory gene products known to be involved in the pathogenesis of psoriasis was measured by real-time polymerase chain reaction (RT-PCR). With regard to gene expression, there were reductions in iNOS and IL-12/IL-23 p40 mRNAs along with reductions in IL-17A and IL-22 mRNAs, indicating inhibition of the Th1, Th17, and Th22 pathways (FIG. 5). […] Normalized IL-17A mRNA levels were reduced by 49% at week 12 and normalized IL-22 mRNA levels were reduced by 100% at week 12. DEFB4, a defensin induced in keratinocytes by IL-17, was reduced by 55% in week 4 biopsies and by 82% in week 12 biopsies. IL-8, which is induced in keratinocytes by IL-17, was reduced by 76% in week 4 biopsies and by 66% in week 12 biopsies.

[2] = system: recalcitrant psoriasis vulgaris; assay: PASI score in phase 2, multi-center, open-label study; type: in vivo, human; details: for PSAI Median Change (%): 20 mg BID; for subjects who had PASI-75 response: week 12
Description: as §1
Additionally, the reductions observed from biopsies were evaluated separately in responders and non-responders.
To identify changes in cellular infiltration or gene expression that correlate with changes in PASI score, a correlation analysis was performed using the Spearman rank-order correlation method. […] A strong trend was observed between the decrease in CD11c+myeloid DC in the epidermis the decrease in PASI score at week 4 (p=0.052).

CCOc1cc([C@@H](CS(C)(=O)=O)N2C(=O)c3cccc(NC(C)=O)c3C2=O)ccc1OC [(S)—N-(2-(1-(3-ethoxy-4-methoxyphenyl)-2-(methylsulfonyl)ethyl)-1,3-dioxoisoindolin-4-yl)acetamide]
reduction of normalized IL-17A mRNA levels ([1]; Week 12, 20 mg b.i.d.): 49% | reduction of normalized IL-22 mRNA levels ([1]; Week 12, 20 mg b.i.d.): 100% | reduction of normalized iNOS mRNA expression ([1]; Week 12, 20 mg b.i.d.): 100% | reduction in IFN-γ gene expression in the skin ([1]; week 4, the three subjects who attained a PASI-75 or better at week 12): 100% | IL-12/23 p40 mRNA levels ([1]; week 4 and week 12 biopsies, 20 mg b.i.d.): significant reductions | reduction of normalized expression of IL-8 ([1]; week 4 biopsies, 20 mg b.i.d.): 76% | inhibition of gene expression, responders vs non-responders ([1]; week 12, 20 mg BID): greater among responders | reduction of normalized expression of IL-8 ([1]; week 12 biopsies, 20 mg b.i.d.): 66% | PSAI Median Change (%) ([2]; Week 4, subjects also with CD3 in Dermis values, No. 19): −29.0% | PSAI Median Change (%) ([2]; Week 4, subjects also with CD3 in Epidermis values, No. 19): −29.0% | PSAI Median Change (%) ([2]; Week 4, subjects also with CD11c in Dermis values, No. 20): −32.0% | PSAI Median Change (%) ([2]; Week 4, subjects also with CD11c in Epidermis values, No. 18): −26.5% | PSAI Median Change (%) ([2]; Week 4, subjects also with CD56 in Dermis values, No. 20): −32.0% | PSAI Median Change (%) ([2]; Week 4, subjects also with CD56 in Epidermis values, No. 16): −15.0% | PSAI Median Change (%) ([2]; Week 4, subjects also with CD83/hARP values, No. 15): −18.0% | PSAI Median Change (%) ([2]; Week 4, subjects also with CXCL9/hARP values, No. 17): −29.0% | PSAI Median Change (%) ([2]; Week 4, subjects also with DEFB4/hARP values, No. 16): −23.5% | PSAI Median Change (%) ([2]; Week 4, subjects also with IFNγ/hARP values, No. 15): −35.0% | PSAI Median Change (%) ([2]; Week 4, subjects also with IL-2/hARP values, No. 12): −32.0% | PSAI Median Change (%) ([2]; Week 4, subjects also with IL-8/hARP values, No. 18): −32.0% | PSAI Median Change (%) ([2]; Week 4, subjects also with IL-10/hARP values, No. 18): −32.0% | PSAI Median Change (%) ([2]; Week 4, subjects also with IL-17A/hARP values, No. 16): −23.5% | PSAI Median Change (%) ([2]; Week 4, subjects also with IL-22/hARP values, No. 10): −18.5% | PSAI Median Change (%) ([2]; Week 4, subjects also with K16/hARP values, No. 18): −32.0% | PSAI Median Change (%) ([2]; Week 4, subjects also with Langerin in Dermis values, No. 17): −18.0% | PSAI Median Change (%) ([2]; Week 4, subjects also with Langerin in Epidermis values, No. 20): −32.0% | PSAI Median Change (%) ([2]; Week 4, subjects also with MX1/hARP values, No. 17): −29.0% | PSAI Median Change (%) ([2]; Week 4, subjects also with TNFα/hARP values, No. 17): −29.0% | PSAI Median Change (%) ([2]; Week 4, subjects also with Thickness values, No. 19): −29.0% | PSAI Median Change (%) ([2]; Week 4, subjects also with iNOS/hARP values, No. 15): −35.0% | PSAI Median Change (%) ([2]; Week 4, subjects also with p19/hARP values, No. 18): −32.0% | PSAI Median Change (%) ([2]; Week 4, subjects also with p40/hARP values, No. 13): −29.0% | PSAI Median Change (%) ([2]; Week 12, subjects also with CD3 in Dermis values, No. 15): −48.0% | PSAI Median Change (%) ([2]; Week 12, subjects also with CD3 in Epidermis values, No. 15): −48.0% | PSAI Median Change (%) ([2]; Week 12, subjects also with CD11c in Dermis values, No. 14): −52.5% | PSAI Median Change (%) ([2]; Week 12, subjects also with CD11c in Epidermis values, No. 13): −45.0% | PSAI Median Change (%) ([2]; Week 12, subjects also with CD56 in Dermis values, No. 15): −48.0% | PSAI Median Change (%) ([2]; Week 12, subjects also with CD56 in Epidermis values, No. 12): −42.5% | PSAI Median Change (%) ([2]; Week 12, subjects also with CD83/hARP values, No. 11): −48.0% | PSAI Median Change (%) ([2]; Week 12, subjects also with CXCL9/hARP values, No. 11): −48.0% | PSAI Median Change (%) ([2]; Week 12, subjects also with DEFB4/hARP values, No. 10): −46.5% | PSAI Median Change (%) ([2]; Week 12, subjects also with IFNγ/hARP values, No. 12): −54.0% | PSAI Median Change (%) ([2]; Week 12, subjects also with IL-2/hARP values, No. 10): −54.0% | PSAI Median Change (%) ([2]; Week 12, subjects also with IL-8/hARP values, No. 14): −54.0% | PSAI Median Change (%) ([2]; Week 12, subjects also with IL-10/hARP values, No. 14): −54.0% | PSAI Median Change (%) ([2]; Week 12, subjects also with IL-17A/hARP values, No. 10): −46.5% | PSAI Median Change (%) ([2]; Week 12, subjects also with IL-22/hARP values, No. 6): −46.5% | PSAI Median Change (%) ([2]; Week 12, subjects also with K16/hARP values, No. 14): −54.0% | PSAI Median Change (%) ([2]; Week 12, subjects also with Langerin in Dermis values, No. 12): −54.0% | PSAI Median Change (%) ([2]; Week 12, subjects also with Langerin in Epidermis values, No. 15): −48.0% | PSAI Median Change (%) ([2]; Week 12, subjects also with MX1/hARP values, No. 11): −48.0% | PSAI Median Change (%) ([2]; Week 12, subjects also with TNFα/hARP values, No. 13): −60.0% | PSAI Median Change (%) ([2]; Week 12, subjects also with Thickness values, No. 14): −46.5% | PSAI Median Change (%) ([2]; Week 12, subjects also with iNOS/hARP values, No. 11): −48.0% | PSAI Median Change (%) ([2]; Week 12, subjects also with p19/hARP values, No. 14): −54.0% | PSAI Median Change (%) ([2]; Week 12, subjects also with p40/hARP values, No. 7): −48.0% | subjects who had PASI-75 response ([2]; IFNγ analysis set (eight subjects non PASI-75)): four | subjects who had PASI-75 response ([2]; Langerin in dermis analysis set (ten subjects non PASI-75)): four
